Assays:
PARP = assay: Example 2 immunohistochemistry: PARP-immunoreactive cells; assay type: in vivo, Sprague-Dawley (SD) rats; details: for Numbers of neurons: PARP+: 1 mg/kg s.c. once a day for 14 days, 29 days after neuron apoptosis
Experimental: (§1) The induction of neuron apoptosis was carried out by damaging the right hemisphere of the brain of animals. Specifically, animals were anesthetized with 2 or 3% isoflurane in the mixture of 70% N2O and 28.5% O2, and were maintained with 1 to 1.5% isoflurane in the mixture of 70% N2O and 28.5% O2. After that the temporalis muscle was bisected and reflected through an incision made midway between the eye and the eardrum canal. The proximal MCA was exposed through a subtemporal craniectomy by microdental drills without removing the zygomatic arch and without transecting the facial nerve. […] Mortality was less than 5%. For sham control, all procedures were performed in the same way, with the exception of the occlusion of the MCA.
After deparaffinized of prepared […] histological paraffin sections, citrate buffer antigen (epitope) retrieval pretreatment were conducted as previously (Shi S R et al., J Histochem Cytochem. 41:1599-604(1993)). Briefly, pre-heat water bath with staining dish containing 10 mM citrate buffers (pH 6.0) until temperature reaches 95-100° C. Immerse slides in the staining dish and place the lid loosely on the staining dish. Incubate for 20 minutes and turn off the water bath. Place the staining dish at room temperature and allow the slides to cool for 20 minutes. After epitope retrievals, sections were immunostained using avidin-biotin complex (ABC) methods for caspase-3 and PARP. Endogenous peroxidase activity was blocked by incubated in methanol and 0.3% H2O2 for 30 minutes, and non-specific binding of immunoglobulin was blocked with normal horse serum blocking solution (Vector Lab., Burlingame, Calif., USA. Dilution 1:100) for 1 hr in humidity chamber. Primary antiserum were treated for overnight at 4° C. in humidity chamber, and then incubated with biotinylated universal secondary antibody (Vector Lab., Dilution 1:50) and ABC reagents (Vectastain Elite ABC Kit, Vector Lab., Dilution 1:50) for 1 hr at room temperature in humidity chamber. Finally, reacted with peroxidae substrate kit (Vector Lab.) for 3 min at room temperature. All sections were rinse in 0.01M PBS for 3 times, between steps. The neurons occupied by over 10% of immunoreactivities, the density, of each antiserum for caspase-3 and PARP were regarded as positive, and the mean numbers of caspase-3 and PARPimmunoreactive cells dispersed in the mm^2 of ipsilateral peri-infarct/defect cerebral cortex were counted using an automated image analysis process as establish methods (Lee et al., 2010; Song et al., 2012), respectively. The histopathologist was blinded to the group distribution when performing the analysis.
All data were expressed as mean±standard deviation (S.D.) of ten rats. Multiple comparison tests for different dose groups were conducted. Variance homogeneity was examined using the Levene test (Levene A, Clin Otalary, 1981; 6:145-51). […] Statistical analyses were conducted using SPSS for Windows (Release 14K, SPSS Inc., USA; Ludbrook, Clin Exp Pharmacol Physiol, 1997; 24:294-6). In addition, the percent changes as compared with neuron apoptosis control and mirodenafil treated rats were calculated to help the understanding of the efficacy of test substances as follow Equation 6 and 7. Percentage Changes as Compared with Sham Control (%)=[((Data of neuron apoptosis control−Data of sham control rat)/Data of sham control rats)×100] [EQUATION 6] Percentage Changes as Compared with neuron apoptosis Control (%)=[((Data of test material treated rats−Data of neuron apoptosis control rats)/Data of neuron apoptosis control rats)×100] [EQUATION 7]

[1] = tested on: neuron apoptosis-operated rats, ipsilateral cerebral cortex; assay: Example 2 (timing of administration) histopathology: cerebral atrophy and degenerative neurons; assay type: in vivo, Sprague-Dawley (SD) rats; details: for Cerebral atrophic % / Numbers of neurons: Degenerative cells: 1 mg/kg s.c. once a day for 14 days, 29 days after neuron apoptosis
Experimental: Total one hundred healthy male Sprague-Dawley (SD) rats (6-wk old upon receipt; Japan; Body weight ranged in 170-190 g upon receipt) were used after acclimatization for 16 days. Animals were allocated four per polycarbonate cage in a temperature (20-25° C.) and humidity (50-55%) controlled room. Light:dark cycle was 12 hr:12 hr, and standard rodent chow (Samyang, Korea) and water were supplied free to access. All animals were treated in accordance with the Guidelines for Care and Use of Laboratory Animals of Daegu Haany University based on the Guide for the Care and Use of Laboratory Animals by Institute of Laboratory Animal Resources, Commission on Life Science, National Research Council, USA on 1996, Washington D.C. Experimental groups are as follows:
The mirodenafil (mirodenafil 2HCl; SK Chemical Life Science Business, KR) was used in this experiment. […] Mirodenafil was stored at 4° C. in a refrigerator to protect from light and humidity until used. Mirodenafil were directly dissolved in saline as 1 mg/ml concentrations, and subcutaneously administered in a volume of 1 ml/kg on the dorsal back skins from 24, 72 and 168 hrs after neuron apoptosis, once a day for 14 days, respectively. In saline and neuron apoptosis control rats, equal volumes of saline as vehicle were administered, instead of mirodenafil from 24 hrs after neuron apoptosis for 20 days, respectively.
as §1
At 29 days after neuron apoptosis, rats were sacrificed under deep anesthesia with 3% isoflurane inhalation. Brains were removed, washed in chilled phosphate buffered saline (PBS, pH7.4), and dissected into 6 coronal sections (2 mm thickness) ranging from 2 to 14 mm from the frontal brain pole on the rat brain stainless steel coronal matrix (Harvard, USA). Prepared last 6th cerebral parts were directly fixed in 10% neural buffered formalin. Then, embedded in paraffin, cross-sectioned, and stained with hematoxylin and eosin (H&E) for observing general histopathology of cerebral cortex. […] The histopathologist was blindes to group distribution when this analysis was made.
Histomorphometry: The atrophic % of ipsilateral cerebral cortex was calculated as following Equation 4 as compared with intact contralateral hemisphere in prepared peri-infarct/defect histological specimens. In addition, the numbers of degenerative neurons were also measured in the restricted view fields of cerebral cortex, mm2, respectively. Cerebral atrophy formation=(Contralateral cerebral cortex area−ipsilateral cerebral cortex area)/Contralateral cerebral cortex area×100(%) [EQUATION 4]
All data were expressed as mean±standard deviation (S.D.) of ten rats. Multiple comparison tests for different dose groups were conducted. Variance homogeneity was examined using the Levene test (Levene A, Clin Otalary, 1981; 6:145-51). […] Statistical analyses were conducted using SPSS for Windows (Release 14K, SPSS Inc., USA; Ludbrook, Clin Exp Pharmacol Physiol, 1997; 24:294-6). In addition, the percent changes as compared with neuron apoptosis control and mirodenafil treated rats were calculated to help the understanding of the efficacy of test substances as follow Equation 6 and 7. […]

[2] = 1 mg/kg from 24 hrs after surgery
[3] = 1 mg/kg from 72 hrs after surgery
[4] = 1 mg/kg from 168 hrs after surgery

CCCOc1ccc(S(=O)(=O)N2CCN(CCO)CC2)cc1-c1nc2c(CCC)cn(CC)c2c(=O)[nH]1 [Mirodenafil, mirodenafil]
numbers of PARP-immunoreactive neurons at 29 days, change as compared with neuron apoptosis control (PARP; [2]): −53.92% | numbers of PARP-immunoreactive neurons at 29 days, change as compared with neuron apoptosis control (PARP; [3]): −39.72% | numbers of PARP-immunoreactive neurons at 29 days, change as compared with neuron apoptosis control (PARP; [4]): −15.68% | Numbers of neurons: PARP+ (PARP; start 24 hrs after operation): 36.14 ± 5.32^ab cells/mm^2 of cerebral cortex | Numbers of neurons: PARP+ (PARP; start 72 hrs after operation): 47.28 ± 5.36^ab cells/mm^2 of cerebral cortex | Numbers of neurons: PARP+ (PARP; start 168 hrs after operation): 66.13 ± 9.61^ac cells/mm^2 of cerebral cortex | ipsilateral cerebral atrophic % at 29 days, change as compared with neuron apoptosis control [1, 2]: −60.71% | numbers of degenerative neurons at sacrifice, change as compared with neuron apoptosis control [1, 2]: −70.64% | ipsilateral cerebral atrophic % at 29 days, change as compared with neuron apoptosis control [1, 3]: −26.37% | numbers of degenerative neurons at sacrifice, change as compared with neuron apoptosis control [1, 3]: −45.90% | ipsilateral cerebral atrophic % at 29 days, change as compared with neuron apoptosis control [1, 4]: −12.31% | numbers of degenerative neurons at sacrifice, change as compared with neuron apoptosis control [1, 4]: −15.40% | Cerebral atrophic % ([1]; start 24 hrs after operation): 21.90 ± 3.13^ab % | Numbers of neurons: Degenerative cells ([1]; start 24 hrs after operation): 22.80 ± 3.69^ab cells/mm^2 of cerebral cortex | Cerebral atrophic % ([1]; start 72 hrs after operation): 41.03 ± 5.05^ab % | Numbers of neurons: Degenerative cells ([1]; start 72 hrs after operation): 42.01 ± 6.14^ab cells/mm^2 of cerebral cortex | Cerebral atrophic % ([1]; start 168 hrs after operation): 48.87 ± 3.25^ac % | Numbers of neurons: Degenerative cells ([1]; start 168 hrs after operation): 65.70 ± 7.64^ac cells/mm^2 of cerebral cortex
